Patent publication US20170094972A1, “Compounds and Compositions Having Knock-Down Activity Against Insect Pests” (priority 2015, published 2017)
Where two headings read alike, the source gives them in different places.

Tests used:
Type in all cases: in vivo
[1] = system: female mosquitoes; test: Tunnel study based on WHOPES tunnel tests with Hemotek membrane feeding device; conditions: for mortality at 10 mg/m2: 24 h
Procedure: Based on the “WHOPES tunnel tests” (described at http://apps.who.int/iris/bitstream/10665/80270/1/9789241505277_eng.pdf), except that live guniea pig baits were replaced with a Hemotek membrane feeding device, filled with blood and kept constant at 37° C. to mimic a human host. All tests were done under standardised laboratory controlled conditions (27° C.+2° C. under subdued light). The tunnel apparatus was a 60×30×30 cm glass case open at each end and the floor was lined with wet blue roll in order to maintain humidity. A 30×30×30 cm cage, covered in untreated netting, was placed at the release end. The test nets were cut to 25×25 cm squares and fitted into cardboard frames that allow a 20×20 cm area to be exposed. Nine holes, 1 cm in diameter, were made in the netting in the pattern specified in the WHOPES test. The frames were then fitted into the tunnel one third of the way down its length. A Hemotek device, filled with blood and kept constant at 37° C. to mimic a human host, was placed in the smaller area of the glass tunnel behind the test netting, and the end of the tunnel closed with a netting screen. A human sat at the Hemotek end of the tunnels for the duration of the test. At the start of the test (13.30-14.00), 100 female mosquitoes (non-blood fed, aged 5-8 days) were introduced into the cage. Mosquitoes are free to fly in the tunnel but have to make contact with the piece of netting and locate the holes in it before passing through to reach the bait. After 7 hours (20.30-21.00) the mosquitoes were counted in each section of the tunnel. The number of mosquitoes knocked down and blood fed were recorded. Blood-feeding inhibition was assessed by comparing the proportion of blood-fed females (alive or dead) in treated and control tests. Four tunnels were run simultaneously each day, with one control containing untreated netting included with all runs. Three replicates were carried out per treatment.
(§1) In case of multiple tests, the mean value is reported.

[2] = system: adult female mosquitoes; test: Bottle assay based on CDC bottle assay
Procedure: Based on the “CDC bottle assay” (described at http://www.cdc.gov/malaria/resources/pdf/fsp/ir_manual/ir_cdc_bioassay_en.pdf) 1 ml of ethanol containing a test compound at a defined concentration was added to a 250 ml glass bottle and the bottles were placed on a rolling table to coat the inner surfaces as the solvent evaporated. Once dry, twenty five non-blood fed adult female mosquitoes of the appropriate species and strains (each three day old) were aspirated from the stock culture and gently blown into the exposure bottles. The lid of the bottle was replaced and the bottle placed upright out of direct sun light under standard culture conditions, nominally 28° C. and 60-80% relative humidity.
A stopwatch was started, and the assessment of the knock-down were made after 15 mins and 60 minutes. A mosquito was said to be knocked down if it was unable to stand, following the CDC definition. The bottles were replaced in an upright position when not being assessed.
After one hour the mosquitoes were carefully removed from the bottle with an aspirator and placed in a recovery cup. The mosquitoes were supplied with a 10% sucrose solution on a cotton wool bung, and stored under culture conditions. Assessments of the mortality were made after 24 hours and 48 hours (B15).
Each treatment was replicated a minimum of four times, with the mean knockdown or mortality recorded. In each study, a set of bottles was infested with a known insecticide susceptible strain of mosquitoes from the same genera as the resistant strains.

[3] = system: Anopheles stephensi; test: 6 well plate test, knockdown after 1 hour and mortality after 24 and 48 hours; design: KD: unit not given here; conditions: for KD: after 1 hour
Procedure: The individual wells of six (6) well tissue culture plates were treated with […] of an ethanol solution containing a test compound at a defined concentration. Once the deposits were dry, ten non-blood fed adult female Anopheles stephensi (between two to five day old) were added to each well, and sustained with a 10% sucrose solution in a cotton wool plug. Assessment of the knockdown after 1 hour (Tables B1-B10), and mortality after 24 and 48 hours (Tables B1-B4) was carried out.
as §1

[4] = system: Anopheles stephensi; test: 12 well plate knockdown test; conditions: 1 h, read-out: Anopheles stephensi 1 hour % KD
Procedure: (§2) The individual wells of a twelve (12) well tissue culture plates were treated with 100 μl of an ethanol solution containing a test compound at a defined concentration. Once the deposits were dry, five non-blood fed adult female Aedes aegypti or Anopheles stephensi (between two to five day old) were added to each well, and sustained with a 10% sucrose solution in a cotton wool plug. Assessment of the knockdown after 1 hour was carried out. Where multiple replicates of a treatment have been undertaken, the mean of those replicates is reported.

[5] = system: Aedes aegypti; test: 12 well plate knockdown test; conditions: 1 h, read-out: Aedes aegypti 1 hour % KD
Procedure: as §2

[6] = Table B1, Comp. (I.3) alone 0.1 ppm
[7] = Table B2, Comp. (I.3) alone 0.5 ppm
[8] = Table B3, Comp. (I.3) alone 0.5 ppm
[9] = Table B4, Comp. (I.3) alone 0.5 ppm

SMILES: NC(=O)c1cnccc1C(F)(F)F [I.3]
- mortality at 10 mg/m2 ([1]; Table B11, Rate 10 mg/m2, 24 hours, read-out: % Mortality): 68%
- mortality at 10 mg/m2 ([1]; Table B13, 10 mg/m2, read-out: % 24 hour mortality): 72.2%
- mortality at 10 mg/m2 ([1]; Table B14, 10 mg/m2, read-out: % 24 hour mortality): 68%
- % Blood fed ([1]; Table B11, Rate 10 mg/m2): 3%
- % 1 hour KD ([1]; Table B12, 10 mg/m2): 41.24%
- % Blood fed ([1]; Table B12, 10 mg/m2): 3.09%
- % Through net ([1]; Table B12, 10 mg/m2): 9.28%
- % Blood fed ([1]; Table B13, 10 mg/m2): 18.56%
- % Through net ([1]; Table B13, 10 mg/m2): 22.68%
- % Blood fed ([1]; Table B14, 10 mg/m2): 2.9%
- 24 hour % mort ([2]; Table B15, rates not given): 0%
- 48 hour % mort ([2]; Table B15, rates not given): 0%
- % 1 hour KD ([2]; Table B15, rates not given): 86.66%
- % 1 hour KD ([2]; Table B16, 10ug/bottle): 100%
- % 24 hour mortality ([2]; Table B16, 10ug/bottle): 0%
- 24 hr mort [3, 6]: 0.0
- 48 hr mort [3, 6]: 0.0
- KD [3, 6]: 23.3
- 24 hr mort [3, 7]: 7.0
- 48 hr mort [3, 7]: 10.0
- KD [3, 7]: 60.0
- 24 hr mort [3, 8]: 0.0
- 48 hr mort [3, 8]: 0.0
- KD [3, 8]: 73.0
- 24 hr mort [3, 9]: 2.5
- 48 hr mort [3, 9]: 2.5
- KD [3, 9]: 17.5
- knockdown after 1 hour ([3]; Table B10, Compound (I.3) alone 0.5 ppm): 0.0
- pest or weed control at 0.2 ppm ([4]; Rate 0.2 PPM): 20%
- pest or weed control at 2 ppm ([4]; Rate 2 PPM): 20%
- pest or weed control at 20 ppm ([4]; Rate 20 PPM): 100%
- pest or weed control at 200 ppm ([4]; Rate 200 PPM): 100%
- pest or weed control at 0.2 ppm ([5]; Rate 0.2 PPM): 100%
- pest or weed control at 2 ppm ([5]; Rate 2 PPM): 100%
- pest or weed control at 20 ppm ([5]; Rate 20 PPM): 100%
- pest or weed control at 200 ppm ([5]; Rate 200 PPM): 100%
